Patent US20230091671A1 (priority 2020, published 2023)
Structures can show the parent of a compound that is named as a salt.

How the values were obtained:
[1] = cited from earlier work
[2] = cited from earlier work; remark: listed apart in the source
[3] = in vivo; cited from earlier work
α1-AR 1D = target: T1, α1-AR 1D (Homo sapiens, UniProt P25100); format: binding
T1 construct: expressed in transfected cells; host or cells: HEK-293
T1 sequence (P25100 1-572): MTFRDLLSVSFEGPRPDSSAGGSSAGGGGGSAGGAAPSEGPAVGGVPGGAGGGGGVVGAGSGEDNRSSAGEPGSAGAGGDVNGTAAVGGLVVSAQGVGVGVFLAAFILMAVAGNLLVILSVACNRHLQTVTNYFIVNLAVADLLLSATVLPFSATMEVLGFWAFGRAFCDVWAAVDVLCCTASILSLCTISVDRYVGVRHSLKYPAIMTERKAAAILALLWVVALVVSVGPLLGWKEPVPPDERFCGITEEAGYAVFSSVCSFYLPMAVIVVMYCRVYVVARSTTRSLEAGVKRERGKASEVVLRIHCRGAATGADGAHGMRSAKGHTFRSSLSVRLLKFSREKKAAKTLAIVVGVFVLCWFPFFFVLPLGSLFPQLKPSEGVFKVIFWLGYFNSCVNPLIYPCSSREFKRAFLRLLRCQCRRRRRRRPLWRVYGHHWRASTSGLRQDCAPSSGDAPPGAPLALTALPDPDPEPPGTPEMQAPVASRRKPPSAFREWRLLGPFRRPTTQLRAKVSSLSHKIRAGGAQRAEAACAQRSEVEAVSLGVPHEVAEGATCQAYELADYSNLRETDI

[4] = target: T2, 1A subtype (α-1 adrenergic receptor) (Homo sapiens, UniProt P35348); conditions: cited from earlier work
T2 sequence (P35348 1-466): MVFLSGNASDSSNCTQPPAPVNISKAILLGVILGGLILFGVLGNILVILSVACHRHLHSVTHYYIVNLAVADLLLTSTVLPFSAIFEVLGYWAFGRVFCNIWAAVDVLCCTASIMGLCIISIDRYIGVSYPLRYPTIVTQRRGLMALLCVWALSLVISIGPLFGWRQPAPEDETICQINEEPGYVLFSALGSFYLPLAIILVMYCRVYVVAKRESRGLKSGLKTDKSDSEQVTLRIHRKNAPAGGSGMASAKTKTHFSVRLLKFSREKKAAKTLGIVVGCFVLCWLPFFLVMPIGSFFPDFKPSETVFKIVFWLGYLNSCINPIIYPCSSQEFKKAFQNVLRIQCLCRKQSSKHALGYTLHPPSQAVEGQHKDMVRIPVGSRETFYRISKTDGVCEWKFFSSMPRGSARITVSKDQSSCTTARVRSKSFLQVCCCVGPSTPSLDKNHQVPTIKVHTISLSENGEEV

[5] = system: VC and laryngeal muscles/laryngospasm; conditions: rat model; cited from earlier work
[6] = recommended single intravenous injection
[7] = single intramuscular and intravenous doses
[8] = subcutaneous injection of 10 mg

In the case of `COc1cc2nc(N(C)CCCNC(=O)C3CCCO3)nc(N)c2cc1OC.Cl` (racemic) [ALFUZOSIN, (R,S)-N-[3-[(4-amino-6,7-dimethoxy-2-quinazolinyl)methylamino]propyl]tetrahydro-2-furancarboxamide hydrochloride], the dizziness ([1]; clinical test subjects) is given as 6%, the hypotension ([1]; clinical test subjects) is given as 0.4% and the syncope ([1]; clinical test subjects) is given as 0.2%.

For `COc1cc2nc(N3CCN(C(=O)C4CCCO4)CC3)nc(N)c2cc1OC.Cl` (racemic) [TERAZOSIN, (RS)-Piperazine,1-(4-amino-6,7-dimethoxy-2-quinazolinyl)-4-[(tetra-hydro-2-furanyl)carbonyl]-, monohydrochloride, dihydrate], the syncope ([1]; clinical test subjects) is listed as 0.6% and the postural hypotension ([1]; trial of 600 subjects) is listed as 4%.

In the case of `CCN1CC(CCN2CCOCC2)C(c2ccccc2)(c2ccccc2)C1=O` (stereo not drawn) [Doxapram hydrochloride, 1-ethyl-4-[2-(4-morpholinyl)ethyl]-3,3-diphenyl-2-pyrrolidinone monohydrochloride, monohydrate], the duration of effect [2, 6] is given as 5 to 12 min, the “onset of respiratory stimulation” value [2, 6] is given as 20 to 40 s and the “time of peak effect” value [2, 6] is given as 1 to 2 min.

In the case of `O=C(CCCN1CC=C(n2c(=O)[nH]c3ccccc32)CC1)c1ccc(F)cc1` [Droperidol, 1-[1-[3-(p-Fluorobenzoyl)propyl]-1,2,3,6-tetrahydro-4-pyridyl]-2-benzimidazolinone], the “duration of the tranquilizing and sedative effects” value ([2]; human, in vivo) is listed as “two to four hours”, the “persistence of alteration of alertness” value ([2]; human, in vivo) is listed as “as long as twelve hours” and the onset of action [2, 7] is listed as “three to ten minutes”. For the same compound, the “time until peak effect apparent” value [2, 7] was “up to thirty minutes”.

For `CCC(=O)C(CC(C)N(C)C)(c1ccccc1)c1ccccc1` (stereo not drawn) [Methadone], the “metabolism (enzymes / pathway)” value [3] is listed as “CYP3A4, CYP2B6 and CYP2D6”.

For `NC[C@H](O)c1ccc(O)c(O)c1` [NE], the “affinity and potency at α1-AR 1D compared with other subtypes” value (α1-AR 1D) was “highest affinity and potency”.

For `CN1CCC[C@H]1c1cccnc1` [Nicotine], the “crossing of the blood brain barrier” value [3] is listed as “crosses the blood-brain barrier”, the “elimination half-life in the body” value [3] is listed as “around two hours” and the half-life [3] is listed as 1 to 2 h. The route of excretion [3] was “primarily excreted in urine” and the “time to reach the brain after inhalation” value [3] was 10 to 20 s.

In the case of `COc1cc2nc(N3CCN(C(=O)c4ccco4)CC3)nc(N)c2cc1OC.Cl` [PRAZOSIN, 1-(4-amino-6,7-dimethoxy-2-quinazolinyl)-4-(2-furoyl) piperazine], the “Syncope and symptoms of hypotension, share of subjects receiving” value ([1]; 1 mg BID/TID titrated up to 20 mg total QD) is listed as 6-12%.

In the case of `C[C@H](Cc1cc2c(c(C(N)=O)c1)N(CCCO)CC2)NCCOc1ccccc1OCC(F)(F)F` [SILODOSIN, (3-Hydroxypropyl)-5-[(2R)-2-({2-[2-(2,2,2trifluoroethoxy)phenoxy]ethyl}amino)propyl]-2,3-dihydro-1H-indole-7-carboxamide], the “Dizziness and orthostatic hypotension” value ([1]; Study of 897 subjects, 8 mg QD) is listed as 3% and the “subjects with syncope / subjects in study” value ([1]; Study of 897 subjects, 8 mg QD) is listed as 1/897.

In the case of `CCOc1ccccc1OCCN[C@H](C)Cc1ccc(OC)c(S(N)(=O)=O)c1` [TAMSULOSIN, (-)-(R)-5-[2-[[2-(o-Ethoxyphenoxy)ethyl]amino]propyl]-2-methoxybenzenesulfon-amide, monohydrochloride], the “incidence of hypotension, syncope, vertigo” value ([1]; Dose (0.4-0.8 mg QD)) is given as 0.2%-0.6% and the “greater binding affinity at the 1A subtype over other α-1 antagonists” value [4] is given as 12-30 times.

For `C=CCN1CC[C@]23c4c5ccc(O)c4O[C@H]2C(=O)CC[C@@]3(O)[C@H]1C5.Cl` [naloxone, 17-Allyl-4,5α-epoxy-3,14-dihydroxymorphinan-6-one hydrochloride], the “dose at which naloxone has an effect” value [5] is listed as greater than 0.8 mg/kg.

For `CC[C@@H]1C(=O)OC[C@@H]1Cc1cncn1C` [pilocarpine HCl], the salivation [2, 8] is given as 1 L and the sweating [2, 8] is given as 0.5 to 1.0 L.
